Legend:
[1] = system: Xanthomonas axonopodis pv. glycines; details: in vitro growth
Description: MICs were determined using the M7-A6 protocol from the Clinical Laboratory Standards Institute (CLSI). […] Initial bacterium inoculum of ∼10^5 colony forming units/mL were transferred, along with serial 2-fold dilutions of each peptide to 96-well plates and incubated for 12 h. […] For each peptide concentration, optical density (OD600) readings were subtracted from that of the growth medium and divided by the positive control (100% bacterial growth). Inhibitory assays for X. axonopodis pv. glycines were conducted by the same methodology with longer incubation time (48 h).

[2] = system: Phakopsora pachyrhizi spores; assay: In situ germination inhibition of Phakopsora pachyrhizi spores on Glycine max leaves' surface; type: cell-based; details: 8 µg/mL (3 µM) peptide co-incubated with 3.5×10^5/ml spores on G. max leaf disks, 7 days, 21°C; average of three experiments
Description: P. pachyrhizi spores were scraped off infected G. max leaves and were frozen at −80°C. Prior to the in situ assay, spores were dissolved in Mili-Q® water, incubated at 40°C for 40 min and quantified using a Neubauer chamber. […]. BR-16). Spores were then co-incubated with fifty microliters of a peptide solution at concentrations ranging from 8 to 128 µg/mL. Leaves were immediately placed on a Petri dish containing moist filter papers and incubated at 21°C under 12 h-photoperiod and photographed after 7 days. Images were used to measure the infected area using the QUANT v1.0.1 software.

Phakopsora pachyrhizi = assay: Asian rust tolerance assay of transformed soybean plants; type: in vivo, Phakopsora pachyrhizi on Glycine max; details: sprayed with 10^6 spores/mL, 15 days, control plants 45±8
Description: The gene encoding the peptide gb|ABM17058.1|(213–231), primary structure […], was synthesized by Epoch Life Science Inc. (Sugar Land, TX, USA) and cloned into the vector pBluKSPOXDCAHAS replacing the oxdc gene. The vector was used to transform soybean plants as previously described, [31]. Six intragenic soybean lines were tested for tolerance to Asian rust (Phakopsora pachyrhizi). The plants (20 plants per line at V3 stage) were sprayed with a spore suspension (10^6 spores/mL) and maintained in the greenhouse at room temperature and sprinkling 4 times a day. Leaves were photographed after 15 days and the number of pustules per square centimeter counted.

Sequence	concentration that inhibited the in vitro growth of X. axonopodis pv. glycines [1] [µM]	infected area [2]	number of uredia per foliar area (Phakopsora pachyrhizi; transformed G. max lineage 72.14.5, V3 stage) [pustules/cm^2]	number of uredia per foliar area (Phakopsora pachyrhizi; transformed G. max lineage 72.14.9, V3 stage) [pustules/cm^2]
RWRFLRKISSVHMFSVKALDDFRQL [Gm0025x00667(75–100), novel IAP, fragment of the G. max enzyme flavonoid 3-hydroxylase]	5	approximately 50 % of the control	–	–
MIKAFKEATKVDKVVVLWTA [gb|ABM17058.1|(213–231), IAP, fragment of G. max D-myo-inositol 3-phosphate synthase; expressed in transformed soybean lineages 72.14.5 and 72.14.9]	–	–	7±3	12±3

Source: article PMC3461044, “Probing Protein Sequences as Sources for Encrypted Antimicrobial Peptides” (PLoS ONE, 2012)
